6 molecules from PubChem BioAssay (NCI) can be followed below.

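Five concentrations, 48 hours, 96-well plates. The concentration for full growth arrest is given as TGI.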 Some results are limits rather than exact numbers.

Some test systems named below: HCC-2998 colon; SF-539 CNS; RXF 393 renal; M14 melanoma; MALME-3M melanoma; MDA-MB-231 breast; HCT-116 colon; PC-3 prostate; T-47D breast; SK-MEL-5 melanoma.
Common to all, as to assay: inhibition of tumour cell growth, NCI panel, 48 h

For the molecule `O=C(N/N=C\c1cccs1)c1ccncc1`, the TGI with HCC-2998 colon, with SF-539 CNS, with RXF 393 renal, with M14 melanoma, in the experiment on MALME-3M melanoma and in the experiment with MDA-MB-231 breast was greater than 100 µM throughout. Moreover, the TGI in the experiment on HCT-116 colon, in the experiment with PC-3 prostate, in the experiment on T-47D breast and in the experiment with SK-MEL-5 melanoma was greater than 100 µM each time.

Turning to `CCCCC(=C=C(C)CO)C1CCCN1C(=O)OC(C)(C)C` (stereo not given), the TGI in the experiment on HCC-2998 colon came out at 20.3 µM; with SF-539 CNS it was 34.5 µM; with RXF 393 renal, 29.4 µM; with M14 melanoma, 35.4 µM; in the experiment on MALME-3M melanoma, 28.2 µM; in the experiment on MDA-MB-231 breast it was 34 µM. The TGI in the experiment on HCT-116 colon was 29.5 µM; in the experiment with PC-3 prostate, 38.1 µM; with T-47D breast it was greater than 100 µM; in the experiment on SK-MEL-5 melanoma it was 29.8 µM.

Take `O=C(/C=C/c1ccc(OCc2ccccc2)cc1)NCc1ccc(C(=O)NCc2ccccc2)cc1`: the TGI with HCC-2998 colon, in the experiment on SF-539 CNS, in the experiment on RXF 393 renal, in the experiment on M14 melanoma, in the experiment on MALME-3M melanoma and in the experiment on MDA-MB-231 breast was greater than 100 µM throughout. Moreover, the TGI in the experiment on HCT-116 colon, in the experiment with PC-3 prostate, with T-47D breast and with SK-MEL-5 melanoma was greater than 100 µM each time.

With `COc1cc(OCc2nc3cc(C(F)(F)F)ccc3nc2-c2ccccc2)cc(OC)c1OC`, the TGI with HCC-2998 colon was greater than 100 µM; in the experiment with SF-539 CNS it was greater than 100 µM; in the experiment on RXF 393 renal it was 65.8 µM; in the experiment on M14 melanoma it was greater than 100 µM; in the experiment with MALME-3M melanoma, greater than 100 µM; with MDA-MB-231 breast it was greater than 100 µM. Further, the TGI in the experiment with HCT-116 colon, in the experiment on PC-3 prostate, in the experiment on T-47D breast and with SK-MEL-5 melanoma was greater than 100 µM each time.

For `CCCc1n[nH]c(=O)n1N1C(=O)C=CC1=O`, the TGI in the experiment with HCC-2998 colon, with SF-539 CNS, in the experiment on RXF 393 renal, in the experiment with M14 melanoma, in the experiment on MALME-3M melanoma and in the experiment on MDA-MB-231 breast was greater than 100 µM in each case. In addition, the TGI in the experiment on HCT-116 colon, with PC-3 prostate, with T-47D breast and with SK-MEL-5 melanoma was greater than 100 µM each time.

`CC(=O)NNc1nc(C)c(C(/C=C/c2ccc([N+](=O)[O-])cc2)=N/NC(N)=O)s1`: the TGI in the experiment on HCC-2998 colon, in the experiment with SF-539 CNS, in the experiment on RXF 393 renal, in the experiment with M14 melanoma, with MALME-3M melanoma and with MDA-MB-231 breast was greater than 100 µM each time. The TGI in the experiment on HCT-116 colon, in the experiment with PC-3 prostate, in the experiment on T-47D breast and in the experiment on SK-MEL-5 melanoma was greater than 100 µM throughout.
